In article PMC11785640, “Structure-based inhibition of acetylcholinesterase and butyrylcholinesterase with 2-Aryl-6-carboxamide benzoxazole derivatives: synthesis, enzymatic assay, and in silico studies” (Molecular Diversity, 2024):

Assays:
AChE = AChE (Electrophorus electricus, UniProt O42275); assay: biochemical; type: biochemical; conditions: for Ki: from Lineweaver-Burk graphs, mean ± SD, triplicate; for Selectivity index (AChE/BChE): ratio AChE/BChE
Method: (§1) These analogs were dissolved in DMSO at an initial concentration of 1 mg/mL. Around 1% of DMSO was present in the final reaction mixture. Acetylthiocholine iodide (AChI)/butyrylcholine iodide (BChI) were used as substrates for enzymatic reactions. […] The mixture was incubated at 20 °C for 20 min. Then, 50 µL of 5,5’-dithio-bis 2-nitro-benzoic acid (DTNB, 0.5 mM) and AChI/BChI were added and enzymatic reactions were initiated.
(§2) Lineweaver-Burk graphs were used for the calculation of Ki and the other parameters as described in prior studies. The Ki values were taken out from this graph. All analyses were conducted independently in triplicate, and result data are expressed as mean values ± SD [59].

BChE = BChE (Equus caballus, UniProt P81908); assay: biochemical; type: biochemical; conditions: for Ki: from Lineweaver-Burk graphs, mean ± SD, triplicate
Method: as §1, §2

Sequence of AChE (O42275 24-633): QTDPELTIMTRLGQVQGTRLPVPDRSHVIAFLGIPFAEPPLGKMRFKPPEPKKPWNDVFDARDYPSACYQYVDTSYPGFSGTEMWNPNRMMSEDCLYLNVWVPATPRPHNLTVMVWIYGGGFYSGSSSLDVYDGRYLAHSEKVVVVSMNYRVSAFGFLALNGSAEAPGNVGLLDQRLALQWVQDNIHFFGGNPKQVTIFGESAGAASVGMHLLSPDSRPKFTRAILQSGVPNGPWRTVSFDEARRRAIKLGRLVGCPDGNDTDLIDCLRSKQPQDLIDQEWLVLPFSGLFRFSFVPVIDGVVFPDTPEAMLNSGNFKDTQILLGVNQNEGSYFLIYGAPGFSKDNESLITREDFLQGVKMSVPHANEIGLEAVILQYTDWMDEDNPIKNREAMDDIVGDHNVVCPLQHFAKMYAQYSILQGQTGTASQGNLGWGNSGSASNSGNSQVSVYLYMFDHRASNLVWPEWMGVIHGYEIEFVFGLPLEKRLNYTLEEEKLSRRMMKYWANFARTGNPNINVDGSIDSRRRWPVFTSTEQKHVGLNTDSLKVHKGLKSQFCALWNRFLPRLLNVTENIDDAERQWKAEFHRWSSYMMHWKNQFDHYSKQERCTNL
Sequence of BChE (P81908 whole entry): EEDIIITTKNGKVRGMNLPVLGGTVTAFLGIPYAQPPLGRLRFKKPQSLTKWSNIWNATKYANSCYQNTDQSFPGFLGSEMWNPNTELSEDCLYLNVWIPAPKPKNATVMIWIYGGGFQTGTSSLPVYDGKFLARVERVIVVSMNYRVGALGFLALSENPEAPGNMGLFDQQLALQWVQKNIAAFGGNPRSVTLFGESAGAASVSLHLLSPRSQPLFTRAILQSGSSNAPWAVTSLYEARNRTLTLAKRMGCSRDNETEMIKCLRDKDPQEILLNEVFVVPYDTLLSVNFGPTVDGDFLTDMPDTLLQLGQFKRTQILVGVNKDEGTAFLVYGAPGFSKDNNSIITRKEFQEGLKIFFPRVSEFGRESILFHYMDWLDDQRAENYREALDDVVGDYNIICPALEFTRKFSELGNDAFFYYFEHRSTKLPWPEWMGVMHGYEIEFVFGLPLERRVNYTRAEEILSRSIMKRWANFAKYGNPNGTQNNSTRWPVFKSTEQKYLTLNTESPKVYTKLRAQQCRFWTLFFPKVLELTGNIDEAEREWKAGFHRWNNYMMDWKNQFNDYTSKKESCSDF

SMILES | IC50 (AChE) [nM] | Ki (AChE) [nM] | Selectivity index (AChE/BChE) (AChE) | IC50 (BChE) [nM] | Ki (BChE) [nM] | type of inhibition, AChE (AChE) | type of inhibition, BChE (BChE)
CN(C)C(=O)c1ccc2nc(-c3ccccc3)oc2c1 [Compound 7, N,N -dimethyl-2-phenylbenzo[d]oxazole-6-carboxamide] | 32.9 | 23 ± 1.7 | 0.45 | 65.8 | 50.7 ± 6.43 | – | –
CCN(CC)C(=O)c1ccc2nc(-c3ccccc3)oc2c1 [Compound 8, N,N-diethyl-2-phenylbenzo[d]oxazole-6-carboxamide] | 34 | 30.6 ± 3.34 | 0.40 | 74 | 77 ± 5.25 | – | –
CCCN(CCC)C(=O)c1ccc2nc(-c3ccccc3)oc2c1 [Compound 9, 2-Phenyl-N,Ndipropylbenzo[d]oxazole-6-carboxamide] | 48.8 | 59.4 ± 3.69 | 0.53 | 116 | 111 ± 4.67 | – | –
O=C(c1ccc2nc(-c3ccccc3)oc2c1)N1CCCC1 [Compound 10] | 35.7 | 46.5 ± 6.59 | 1.27 | 51.4 | 36.6 ± 11 | – | –
O=C(c1ccc2nc(-c3ccccc3)oc2c1)N1CCCCC1 [Compound 11] | 21.4 | 18.6 ± 2.58 | 0.25 | 61.2 | 74.4 ± 16.9 | – | –
O=C(c1ccc2nc(-c3ccccc3)oc2c1)N1CCOCC1 [Compound 12] | 29.6 | 28.6 ± 3.96 | 0.88 | 34.5 | 32.3 ± 3.25 | – | –
CN(C)C(=O)c1ccc2nc(-c3ccc(-c4ccccc4)cc3)oc2c1 [Compound 13, 2-([1,1’-Biphenyl]-4-yl)-N,N-dimethylbenzo[d]oxazole-6-carboxamide] | 33.2 | 29.8 ± 1.02 | 0.46 | 63.5 | 65.4 ± 14.1 | – | –
CCN(CC)C(=O)c1ccc2nc(-c3ccc(-c4ccccc4)cc3)oc2c1 [Compound 14] | 30.8 | 19.8 ± 3.69 | 0.26 | 84.6 | 75.3 ± 13.8 | – | –
CCCN(CCC)C(=O)c1ccc2nc(-c3ccc(-c4ccccc4)cc3)oc2c1 [Compound 15, 2-([1,1’-Biphenyl]-4-yl)-N,N-dipropylbenzo[d]oxazole-6-carboxamide] | 40.7 | 38.2 ± 0.66 | 0.40 | 113 | 95.7 ± 7.32 | – | –
O=C(c1ccc2nc(-c3ccc(-c4ccccc4)cc3)oc2c1)N1CCCC1 [Compound 16, (2-([1,1’-Biphenyl]-4-yl)benzo[d]oxazol-6-yl)(pyrrolidin-1-yl)methanone] | 26.3 | 26.7 ± 5.13 | 0.32 | 86.2 | 84 ± 12.4 | – | –
O=C(c1ccc2nc(-c3ccc(-c4ccccc4)cc3)oc2c1)N1CCCCC1 [Compound 17, (2-([1,1’-Biphenyl]-4-yl)benzo[d]oxazol-6-yl)(piperidin-1-yl)methanone] | 20.6 | 18.4 ± 3.33 | 0.37 | 58.9 | 49.2 ± 11.1 | – | –
O=C(c1ccc2nc(-c3ccc(-c4ccccc4)cc3)oc2c1)N1CCOCC1 [Compound 18, (2-([1,1’-Biphenyl]-4-yl)benzo[d]oxazol-6-yl)(morpholino)methanone] | 21.3 | 20.9 ± 4.22 | 0.37 | 65.1 | 56.7 ± 1.57 | – | –
CN(C)C(=O)c1ccc2nc(-c3cccc4ccccc34)oc2c1 [Compound 19, N,Ndimethyl-2-(naphthalen-1-yl)benzo[d]oxazole-6-carboxamide] | 39.6 | 38.8 ± 2.96 | 0.32 | 142 | 121 ± 15.5 | – | –
CCN(CC)C(=O)c1ccc2nc(-c3cccc4ccccc34)oc2c1 [Compound 20, N,Ndiethyl-2-(naphthalen-1-yl)benzo[d]oxazole-6-carboxamide] | 53.6 | 48.5 ± 9.97 | 0.36 | 174 | 136 ± 30.7 | – | –
CCCN(CCC)C(=O)c1ccc2nc(-c3cccc4ccccc34)oc2c1 [Compound 21, 2-(Naphthalen-1-yl)-N,Ndipropylbenzo[d]oxazole-6-carboxamide] | 67 | 71.6 ± 12 | 0.50 | 188 | 145 ± 11.2 | – | –
O=C(c1ccc2nc(-c3cccc4ccccc34)oc2c1)N1CCCC1 [Compound 22] | 43 | 41.9 ± 5.64 | 0.58 | 124 | 72.5 ± 5.66 | – | –
O=C(c1ccc2nc(-c3cccc4ccccc34)oc2c1)N1CCCCC1 [Compound 23] | 24.6 | 20.2 ± 1.47 | 0.29 | 98.3 | 69.4 ± 11.3 | – | –

SMILES | IC50 (AChE) [nM] | Ki (AChE) [nM] | Selectivity index (AChE/BChE) (AChE) | IC50 (BChE) [nM] | Ki (BChE) [nM] | type of inhibition, AChE (AChE) | type of inhibition, BChE (BChE)
O=C(c1ccc2nc(-c3cccc4ccccc34)oc2c1)N1CCOCC1 [Compound 24, Morpholino(2-(naphthalen-1-yl)benzo[d]oxazol-6-yl)methanone] | 50.9 | 45.7 ± 1.65 | 0.90 | 83.8 | 50.7 ± 14 | – | –
CN(C)C(=O)c1ccc2nc(-c3ccncc3)oc2c1 [Compound 25, N,Ndimethyl-2-(pyridin-4-yl)benzo[d]oxazole-6-carboxamide] | 54.7 | 85.3 ± 11.2 | 1.28 | 93.6 | 66.4 ± 13.6 | – | –
CCN(CC)C(=O)c1ccc2nc(-c3ccncc3)oc2c1 [Compound 26, N,Ndiethyl-2-(pyridin-4-yl)benzo[d]oxazole-6-carboxamide] | 48.1 | 83.1 ± 1.33 | 1.53 | 76.2 | 54.4 ± 4.85 | – | –
CCCN(CCC)C(=O)c1ccc2nc(-c3ccncc3)oc2c1 [Compound 27, N,Ndipropyl-2-(pyridin-4-yl)benzo[d]oxazole-6-carboxamide] | 49.5 | 50 ± 5.13 | 0.72 | 87.1 | 69.7 ± 4.1 | – | –
O=C(c1ccc2nc(-c3ccncc3)oc2c1)N1CCCC1 [Compound 28] | 40.5 | 47.9 ± 4.7 | 0.91 | 57.2 | 52.9 ± 11.7 | – | –
O=C(c1ccc2nc(-c3ccncc3)oc2c1)N1CCCCC1 [Compound 29, Piperidin-1-yl(2-(pyridin-4-yl)benzo[d]oxazol-6-yl)methanone] | 28 | 27.4 ± 2.53 | – | 54.1 | 47.9 ± 8.42 | – | –
O=C(c1ccc2nc(-c3ccncc3)oc2c1)N1CCOCC1 [Compound 30, Morpholino(2-(pyridin-4-yl)benzo[d]oxazol-6-yl)methanone] | 24.3 | 18.3 ± 4.37 | 0.40 | 49.7 | 45.4 ± 3.04 | – | –
CN(C)C(=O)c1ccc2nc(-c3ccc[nH]3)oc2c1 [Compound 31, N,N-dimethyl-2-(1 H-pyrrol-2-yl)benzo[d]oxazole-6-carboxamide] | 36.8 | 30.7 ± 2.21 | 0.73 | 47.3 | 42 ± 6.32 | – | –
CCN(CC)C(=O)c1ccc2nc(-c3ccc[nH]3)oc2c1 [Compound 32, N,N-diethyl-2-(1 H-pyrrol-2-yl)benzo[d]oxazole-6-carboxamide] | 41.7 | 47.5 ± 9.8 | 2.07 | 30.1 | 23 ± 1.52 | – | –
CCCN(CCC)C(=O)c1ccc2nc(-c3ccc[nH]3)oc2c1 [Compound 33, N,N-dipropyl-2-(1 H-pyrrol-2-yl)benzo[d]oxazole-6-carboxamide] | 40.2 | 26.1 ± 3.35 | 0.68 | 55.5 | 38.5 ± 8.43 | – | –
O=C(c1ccc2nc(-c3ccc[nH]3)oc2c1)N1CCCC1 [Compound 34, (2-(1 H-pyrrol-2-yl)benzo[d]oxazol-6-yl)(pyrrolidin-1-yl)methanone] | 26.7 | 15.5 ± 1.96 | 0.32 | 53.2 | 48.2 ± 2.56 | – | –
O=C(c1ccc2nc(-c3ccc[nH]3)oc2c1)N1CCCCC1 [Compound 35, (2-(1 H-pyrrol-2-yl)benzo[d]oxazol-6-yl)(piperidin-1-yl)methanone] | 19 | 12.3 ± 1.28 | 0.27 | 49.2 | 44.5 ± 7.43 | – | –
O=C(c1ccc2nc(-c3ccc[nH]3)oc2c1)N1CCOCC1 [Compound 36, (2-(1 H-pyrrol-2-yl)benzo[d]oxazol-6-yl)(morpholino)methanone] | 12.6 | 7.74 ± 0.75 | 0.38 | 25.4 | 20.3 ± 1.56 | mixed-type | mixed-type
CN(C)C(=O)c1ccc2nc(-c3ccco3)oc2c1 [Compound 37, 2-(Furan-2-yl)-N,N-dimethylbenzo[d]oxazole-6-carboxamide] | 46.4 | 45.7 ± 4.3 | 0.37 | 147 | 123 ± 15.3 | – | –
CCN(CC)C(=O)c1ccc2nc(-c3ccco3)oc2c1 [Compound 38, N,N-diethyl-2-(furan-2-yl)benzo[d]oxazole-6-carboxamide] | 52.8 | 41.2 ± 7.41 | 0.69 | 70.4 | 59.4 ± 8.01 | – | –
CCCN(CCC)C(=O)c1ccc2nc(-c3ccco3)oc2c1 [Compound 39, 2-(Furan-2-yl)-N,N-dipropylbenzo[d]oxazole-6-carboxamide] | 28 | 38.5 ± 8.48 | 0.59 | 82.2 | 65.2 ± 8.33 | – | –
